Data set [1] can be described thus: Storage stability of fluorescent-probe solutions of Test Examples 1 to 11 in sealed glass vials (HPLC purity). Type of data set: physicochemical. Here is the method:
A 25 mL glass vial (manufactured by Daiwa Special Glass Co., Ltd.) was filled with 0.125 mL to 0.312 mL of the fluorescent-probe solution obtained in each of Test Examples 1 to 11, and the opening of the glass vial was plugged with a rubber stopper (No. 20-T manufactured by Maruemu Corporation), and then tightly sealed with an aluminum cap over the rubber stopper. The vial filled with each of the fluorescent-probe solutions was stored at 25° C. or 50° C. in the dark for from 25 days to 32 days.
The purity of HMRef-αMan in each of the fluorescent-probe solutions within 12 hours after preparation, and that in each of the fluorescent-probe solutions after storage for from 25 days to 32 days in the vials were measured as described below, and the difference between the purities (the former−the latter) was divided by the number of storage days. Thus, the reduction amount of the purity per day was calculated. In addition, the reduction amount of the purity (converted value) in storage (3 years) at room temperature or in storage (1 year) at 50° C. was calculated from the reduction amount of the purity per day. All the purities of HMRef-αMan within 12 hours after the preparation of the fluorescent-probe solutions obtained in Test Examples 1 to 11 were 99% or more.
HPLC analysis was performed under the following conditions through use of a liquid chromatography system (UltiMate 3000, Thermo Fisher Scientific Inc.), and the ratio of the peak area of HMRef-αMan with respect to the entire peak area was calculated as a purity. • Column: Meteoric core C8, 5 μm, 4.6×150 mm (YMC Co., Ltd.) • Column temperature: 25° C. • Mobile phase A: water/TFA (1,000:1) • Mobile phase B: acetonitrile/TFA (1,000:1) • Liquid-feeding amount: 1.0 mL/min. • Wavelength: 254 nm • Liquid feeding to mobile phase: The liquid was fed under the conditions shown in the following table. […]

The nature of data set [2]: Storage stability of Tween 80-containing fluorescent-probe solutions of Test Examples 13 to 15 in sealed glass vials (HPLC purity). Type of data set: physicochemical. The settings on record: vial stored at 25°C in the dark for 85 days; converted to 3 years (FIG. 4); DMSO 10-50 v/v % with Tween 80. Here is the method: HPLC analysis was performed under the following conditions through use of a liquid chromatography system (UltiMate 3000, Thermo Fisher Scientific Inc.), and the ratio of the peak area of HMRef-αMan with respect to the entire peak area was calculated as a purity. • Column: Meteoric core C8, 5 μm, 4.6×150 mm (YMC Co., Ltd.) • Column temperature: 25° C. • Mobile phase A: water/TFA (1,000:1) • Mobile phase B: acetonitrile/TFA (1,000:1) • Liquid-feeding amount: 1.0 mL/min. • Wavelength: 254 nm • Liquid feeding to mobile phase: The liquid was fed under the conditions shown in the following table.
A glass vial was filled with the fluorescent-probe solution obtained in each of Test Examples 13 to 15, and sealed with a rubber stopper. The vial filled with each of the fluorescent-probe solutions was stored at 25° C. in the dark for 85 days, and analysis was performed by liquid chromatography.
In the same manner as in Test Examples 1 to 11, the purity of HMRef-αMan and the content of the oxidized form thereof in each of the fluorescent-probe solutions within 12 hours after preparation, and those in each of the fluorescent-probe solutions after storage for 85 days in the vials were measured, and the reduction amount of the purity and the increase amount of the oxidized form in 3 years were calculated as converted values. […]

Regarding `OC[C@H]1O[C@H](Cc2ccc3c(c2)Oc2cc(NCC(F)(F)F)ccc2C32OCc3ccccc32)[C@@H](O)[C@@H](O)[C@@H]1O` (stereo partly shown) [HMRef-αMan], the “main analog observed after storage (mass spectrometry of resolved HPLC peak)” value in data set [1] (after storage for 25 to 32 days in the vials) is “an analog (oxidized form) in which two hydrogen atoms were lost from HMRef-αMan was observed as a main analog”. For the same compound, in data set [1] (presence of water in the solvent, FIG. 1 and FIG. 2), the stability during storage result is given as “improved”. Further, the “reduction in purity of HMRef-αMan during storage” value in data set [1] (vial stored at 25°C or 50°C in the dark for 25 to 32 days, converted to 3 years at room temperature / 1 year at 50°C (FIG. 1, FIG. 2), DMSO/water with or without phosphate) was “suppressed by the presence of water in the solvent”; in data set [2], “suppressed even when the content of the organic solvent is reduced by adding the solubilizer”.

The record behind these values is patent publication US20250283887A1, “FLUORESCENT-PROBE SOLUTION” (GORYO CHEMICAL, INC., priority 2022, published 2025).
